≈ marks a conversion by molar mass, not a printed value. Where two headings read alike, the source gives them in different places.
How the values were obtained:
Boll Weevil [1] = test: Biological Method D: Foliar Insecticidal Activity Test, boll weevil test; type: in vivo, Anthonomous grandis; design: key: I = inactive at concentration listed
Protocol: (§1) Biological Method D: Foliar Insecticidal Activity Test
(§2) In evaluating the foliar insecticidal activity of the compounds of this invention against insects and mites, the following test procedures were employed.
(§3) Not all compounds were tested at each of the several concentrations stated above. Test concentrations of a compound were selected as those most likely to differentiate dose response of a particular compound toward a particular test insect.
(§4) Initial evaluations were made on one or more of the following pests:
(§5) For the boll weevil test, 10 adult weevils were placed in a 0.24 ℓ (0.5 pint) glass Mason jar containing a small cube of apple. The weevils were confined to the jar by fiberglass screen mesh secured by a screw-type rim cap. The jars were then sprayed with the test solution using a rotating turntable; directing the spray through the mesh into the jar. The percentage killed was determined after forty-eight and ninety six hours.
(§6) The mortalities obtained in this manner were plotted on logarithmic probability paper.
(§7) The rotating turntable consists of a fixed, continuously operating spray nozzle under which targets are rotated at a fixed speed and distance. If the target is a Petri dish (such as for the bean beetle, armyworm, mite, or aphid tests), the distance from the nozzle is 38.1 cm (15 inches). If the target is a Mason jar (such as for the boll weevil test), the distance from the nozzle is 17.8 cm (7 inches). The nozzle is located 8 inches from the rotating shaft. The targets on individual platforms revolve around the shaft at 1 revolution per 20 seconds but only a brief portion of this time occurs in the spray path. Targets pass only once under the nozzle and then are removed to drying hoods.
(§8) The nozzle used is a 1/4 JCO Spraying Systems (Wheaton, Illinois) air atomizing nozzle equipped with a No. 2850 fluid cap and a No. 70 air cap. At the 68.95 x 10³ Pa gauge (10 psig) air pressure used and with liquid siphon feed, 1.89 ℓ/hr [0.5 GPH (gallons per hour)] are delivered in a round spray pattern with a 21 degree spray angle. Targets are misted with spray droplets to the point that the droplets coalesce to form a uniform thin film insufficient to drown test organisms.

Green Peach Aphid = test: Biological Method D: Foliar Insecticidal Activity Test, aphid test; type: in vivo, Myzus persicae; design: key: I = inactive at concentration listed
Protocol: as §1, §2, §3, §4
(§9) For the aphid test, infested broccoli (Brassica oleracea italica var. DiCicco) leaves containing about 50 aphids were placed in a Petri dish lid on a moistened piece of cotton. The leaves were then sprayed to thorough wetness with the test solution using a rotating turntable, held for twenty-four hours and then the percentage killed was determined.
as §6, §7, §8

Southern Armyworm = test: Biological Method D: Foliar Insecticidal Activity Test, Southern Armyworm test; type: in vivo, Spodoptera eridania; design: key: I = inactive at concentration listed
Protocol: as §1, §2, §3, §4
(§10) For the Mexican Bean Beetle and Southern armyworm tests, individual lima bean (Phaseolus limeniss var. Woods' Prolific) leaves were placed on moistened pieces of filter paper in Petri dishes. The leaves were then sprayed with the test solution using a rotating turntable and allowed to dry. The dishes were then infested with 10 third instar larvae of either the Mexican Been Beetle or the Southern Armyworm. The dishes were then covered. Percent mortality was determined for each species and spray concentration at 48 and 96 hours after treatment.
as §6, §7, §8

[2] = system: southern corn rootworm, Diabrotica undecimpunctata howardi; test: Biological Method A: Corn Rootworm Screening Test (treated non-aggressive soil); details: soil concentration giving 90% mortality, 10 days at 27°C
Two-Spotted Spider Mite = test: Biological Method D: Foliar Insecticidal Activity Test, mite test; type: in vivo, Tetranychus urticae; design: key to LC50 TSM: I = inactive at concentration listed; details: Method D foliar test, Two-Spotted Spider Mite; for LC50: Tetranychus urticae, read-out: LC50 TSM
Protocol: as §1, §2, §3, §4
as §9, with “mite” for “aphid”, “bean (Phaseolus limensis” for “broccoli (Brassica oleracea italica”, “Woods Prolific) leaf discs [3.18 cm (1.25") in diameter]” for “DiCicco) leaves”, “mites” for “aphids”
as §6, §7, §8

Mexican Bean Beetle = test: Biological Method D: Foliar Insecticidal Activity Test, Mexican Bean Beetle test; type: in vivo, Epilachna varivestis; design: key to LC50 BB 96 hrs / LC50 BB 48 hrs.: I = inactive at concentration listed; details: Mexican Bean Beetle; for LC50: Epilachna varivestis
Protocol: as §1, §2, §3, §4, §10, §6, §7, §8

[3] = system: southern corn rootworm, Diabrotica undecimpunctata howardi; details: at-planting soil application
Boll Weevil [4] = test: Biological Method D: Foliar Insecticidal Activity Test, boll weevil test; type: in vivo, Anthonomous grandis; details: Method D foliar test, Boll Weevil
Protocol: as §1, §2, §3, §4, §5, §6, §7, §8

[5] = Method D foliar test, 96 hrs, read-out: LC50 BB 96 hrs
[6] = Method D foliar test, 48 hrs, read-out: LC50 BB 48 hrs.

Row | Compound | LC50 BW 48 hrs (Boll Weevil [1]) | LC50 BW 96 hrs (Boll Weevil [1]) | LC50 GPA (Green Peach Aphid) | LC50 AW 48 hrs (Southern Armyworm) | LC50 AW 96 hrs (Southern Armyworm) | primary nonagressive Method A crw LC90 [2] | LC50 TSM (Two-Spotted Spider Mite) | LC50 (Mexican Bean Beetle; [5]) [mg/L] | LC50 BB 48 hrs. (Mexican Bean Beetle; Method D foliar test, 48 hrs) | secondary aggressive Method C crw LC50 ([3]; rated 17 days post-infestation) [kg/ha] | secondary aggressive Method C crw LC50 ([3]; value in brackets) [lb/acre] | LC50 BW 96 hrs (Boll Weevil [4]) [ppm] | LC50 (Mexican Bean Beetle; [6]) [mg/L] | LC50 BW 48 hrs (Boll Weevil [4]) [ppm] | LC50 BB 96 hrs (Mexican Bean Beetle; Method D foliar test, 96 hrs) | LC50 (Two-Spotted Spider Mite) [mg/L] | LC50 (Mexican Bean Beetle; foliar, 48 hrs, compounds a-r, read-out: LC 50 BB 48 hrs.) [mg/L] | LC50 (Mexican Bean Beetle; foliar, 96 hrs, compounds a-r, read-out: LC 50 BB 96 hrs.) [mg/L]
1 | CCOP(=O)(NNP(=S)(OCC)OCC)SCC (stereo not shown) [Compound 21] | I | I | I | I | I | 4.7 ppm | I |  |  |  |  |  |  |  |  |  |  | 
2 | CCOP(=S)(NNP(=S)(OCC)OC(C)CC)OCC(C)(C)C (stereo not shown) [Compound 47, N-(O-ethyl O-secbutylthiophosphoryl) N′-(O-ethyl O-neopentylthiophosphoryl) hydrazine] | I | I | I | I | I | 0.09 ppm | I | 45 (≈ 111 µM) | I | 0.38 | 0.34 |  |  |  |  |  |  | 
3 | CCCOP(=S)(NNP(=S)(OCC)SCC)OCCC (stereo not shown) [Compound 27] | I |  | I | I | I | 5.8 ppm | I | 150 (≈ 394 µM) |  |  |  | 740 | 150 (≈ 394 µM) |  |  |  |  | 
4 | CCCOP(=S)(NNP(=S)(OCCC)OCCC)OCC (stereo not shown) [Compound 28] | I | I | I | I | I | 1.1 ppm | I | 50 (≈ 132 µM) |  | 1.06 | 0.95 |  | 62 (≈ 164 µM) |  |  |  |  | 
5 | CCOP(=S)(NNP(=S)(OCC(C)(C)C)OCC(C)(C)C)OCC [Compound 59, reference compound] |  |  | I | I | I | I | I |  | I |  |  | 740 |  | 740 | I |  |  | 
6 | CCOP(=S)(NNP(=S)(OCC)SCC)OCC (stereo not shown) [Compound 26] | I | I | I | I | I | 1.1 ppm |  | 150 (≈ 426 µM) |  |  |  |  | 150 (≈ 426 µM) |  |  | 640 (≈ 1820 µM) |  | 
7 | CCCOP(=S)(NNP(=O)(OCC)SCC)OCCC (stereo not shown) [Compound 22] | I | I | I | I | I | I | I | 115 (≈ 316 µM) |  |  |  |  | 150 (≈ 412 µM) |  |  |  |  | 
8 | CCOP(=O)(NNP(=S)(OCC)OCC)SC(C)CC (stereo not shown) [Compound 53] |  |  | I | I | I | 1.6 ppm | I |  | I |  |  | 740 |  | 740 | I |  |  | 
9 | CCOP(=S)(NNP1(=S)OCC(C)(C)CO1)OCC [Compound 61] |  |  | I | I |  | 1.1 ppm | I |  | I |  |  | 740 |  | 740 | I |  |  | 
10 | CCOP(=O)(NNP(=S)(OCC)OC(C)CC)SC(C)CC (stereo not shown) [Compound 56] | I | I | I | I | I | 1.1 ppm | I | 31 (≈ 79 µM) |  |  |  |  | 380 (≈ 968 µM) |  |  |  |  | 
11 | CCOP(=S)(NNP1(=S)N(C)CCN1C)OCC [Compound 3] | I | I | I | I | I | 4.5 ppm | I |  |  |  |  |  |  |  |  |  |  | 
12 | CCOP(=S)(NN(C)P(=S)(OCC)OCC)OC(C)C (stereo not shown) [p] |  |  |  |  |  |  |  |  |  |  |  |  |  |  |  |  | 270 (≈ 741 µM) | 78 (≈ 214 µM)
13 | CCOP(=O)(NNP(=S)(OCC)OC(C)C)SC(C)CC (stereo not shown) [Compound 55] |  |  | I | I | I | 1.1 ppm | I | 17 (≈ 44.9 µM) | I |  |  | 70 |  | 740 |  |  |  | 
14 | COP(=S)(NNP(=S)(OC)OC)OC [Compound 42, reference compound] | I | I | I | I | I | I |  |  |  |  |  |  | 600 (≈ 2140 µM) |  | I | 150 (≈ 535 µM) |  | 
15 | CCCNP(=S)(NNP(=S)(OCCC)OCCC)OCC (stereo not shown) [Compound 25] | I | I | I | I | I | 2.5 ppm | I | 13 (≈ 34.4 µM) |  |  |  |  | 38 (≈ 101 µM) |  |  |  |  | 
16 | CCCOP(=S)(NNP(=S)(OC)OC)OCCC [Compound 37, reference compound] | I | I | I | I | I | 1.7 ppm |  | 62 (≈ 184 µM) |  |  |  |  | 150 (≈ 446 µM) |  |  | 450 (≈ 1340 µM) |  | 
17 | CCOP(=S)(NNP(=S)(OCC)OC(C)(C)C(F)(F)F)OCC (stereo not shown) [Compound 40] | I | I | I | I | I | 1.0 ppm |  | 45 (≈ 108 µM) |  |  |  |  | 38 (≈ 90.8 µM) |  |  | 150 (≈ 359 µM) |  | 
18 | CCOP(=S)(NNP(=S)(OC)OC)OCC [Compound 36, reference compound] | I | I | I | I | I | 0.90 ppm |  | 600 (≈ 1950 µM) | I |  |  |  |  |  |  | 79 (≈ 256 µM) |  | 
19 | CCOP(=S)(NNP(=S)(OCC)N1CCCCC1)OCC (stereo not shown) [Compound 62] | I | I | I | I | I | 1.1 ppm | I |  | I |  |  |  |  |  | I |  |  | 
20 | CCOP(=S)(NNP(=S)(OCC)N1CCCC1)OCC (stereo not shown) [Compound 60] | I | I | I | I | I | 1.1 ppm | I |  | I |  |  |  |  |  | I |  |  | 

Reference: EP0437336B1, “Biophosphoryl hydrazines and their use as pesticides” (priority 1990, dated 1991)
